# Measured values reported in patent US9801901B2, “Alginate oligomers for use in overcoming multidrug resistance in bacteria” (priority 2009, dated 2017).
# Like-named read-outs stand apart in the source and are kept apart here. Marks after values point to notes of the source that are not given here.
# Columns and labels:
# Streptococcus oralis = assay: MIC-assay, Mueller-Hinton broth with G-block alginate, 384-well, OD600 (Table 12); type: cell-based; conditions: Streptococcus oralis (5610, V17) MDR, read-out: MIC
# Text: (§1) Minimum inhibitory concentration (MICs) of different antibiotics for strains of Streptococcus oralis and Staphylococcus aureus (MRSA) displaying MDR phenotypes in the presence of varying concentrations of OligoCF-5/20 (0-10%). (MIC values are expressed in μg ml^−1).
# [1] = test system: Staphylococcus aureus (MRSA) U50; assay: as above; type: cell-based; conditions: MRSA 1040s, U50 MDR
# Text: as §1
# [2] = test system: Burkholderia cepacia (LMG18941, ATCC-BAA-246); assay: MIC-assay, Mueller-Hinton broth with G-block alginate, 384-well, OD600
# [3] = test system: Pseudomonas aeruginosa (R22, PSA, V1); assay: as above
# [4] = test system: Pseudomonas aeruginosa (MDR 301, PSA, V2); assay: as above; conditions: Pseudomonas aeruginosa, Table 8, V2
# [5] = test system: strains of E. coli displaying MDR phenotypes; assay: MIC-assay, Mueller-Hinton broth with G-block alginate, 384-well, OD600 (Table 11); type: cell-based; conditions: Escherichia coli, Escherichia coli (5702, Wales, V11) MDR
# Text: (§2) Minimum inhibitory concentration (MICs) of different antibiotics for strains of E. coli and Providencia stuartii displaying MDR phenotypes in the presence of varying concentrations of OligoCF-5/20 (0-10%). (MIC values are expressed in μg ml^−1).
# MDR Providencia stuartii = assay: as above; type: cell-based; conditions: Providencia stuartii (IR57 India, V7) MDR
# Text: as §2
# [6] = test system: Acinetobacter baumannii (MDR ACB, Libya, V4); assay: MIC-assay, Mueller-Hinton broth with G-block alginate, 384-well, OD600
# [7] = test system: Acinetobacter lwoffii (Egypt, V10); assay: as above
# [8] = test system: strains of Klebsiella pneumoniae displaying MDR phenotypes; assay: MIC-assay, Mueller-Hinton broth with G-block alginate, 384-well, OD600 (Table 10); type: cell-based
# Text: Minimum inhibitory concentration (MICs) of different antibiotics for strains of Klebsiella pneumoniae displaying MDR phenotypes in the presence of varying concentrations of OligoCF-5/20 (0-10%). (MIC values are expressed in μg ml^−1).
# V22 6056 Acinetobacter = assay: MIC assay, CAMHB with alginate oligomer, no visible growth; type: cell-based, Acinetobacter lwoffii; conditions: Table 5, V22 MDR Acin. lwoff
# [9] = test system: Acinetobacter baumannii MDR ACB from Libya (V4); assay: as above; type: cell-based; conditions: for MIC: Acinetobacter baumannii, read-out: MIC
# Text: (§3) The study described in Example 1 was repeated with the following strains of bacteria and antibiotics as detailed in Tables 4, 5 and 6.
# The study described in Example 1 was repeated with the following strains of Acinetobacter baumannii, antibiotics and M-block alginate oligomer in place of OligoG CF-5/20 as detailed in Table 7. The M-block oligomer is 100% M with a DPn of 15 to 18,
# [10] = test system: Pseudomonas aeruginosa MDR R22 from China (V1); assay: as above; type: cell-based; conditions: Pseudomonas aeruginosa, Table 1, V1 MDR R22 PA, read-out: MIC
# Text: as §3
# V11 5702 (Wales) E. coli = assay: as above; type: cell-based; conditions: Table 5, V11 MDR E.coli
# [11] = test system: V12 5725 (Wales) Klebsiella pneumoniae; assay: as above; type: cell-based; conditions: Table 5, V12 MDR Kleb pneu
# [12] = G-block (OligoCF-5/20) 0%, read-out: MIC
# [13] = G-block (OligoCF-5/20) 2%, read-out: MIC
# [14] = G-block (OligoCF-5/20) 6%, read-out: MIC
# [15] = G-block (OligoCF-5/20) 10%, read-out: MIC
# [16] = ATCCBAA246|LMG18941, Table 8, G-block (OligoCF-5/20) 0%
# [17] = ATCCBAA246|LMG18941, Table 8, G-block (OligoCF-5/20) 2%
# [18] = ATCCBAA246|LMG18941, Table 8, G-block (OligoCF-5/20) 6%
# [19] = ATCCBAA246|LMG18941, Table 8, G-block (OligoCF-5/20) 10%
# [20] = Table 8, G-block (OligoCF-5/20) 6%
# [21] = Table 8, G-block (OligoCF-5/20) 10%
# [22] = Table 9, G-block (OligoCF-5/20) 0%
# [23] = Table 9, G-block (OligoCF-5/20) 2%
# [24] = Table 9, G-block (OligoCF-5/20) 6%
# [25] = Table 9, G-block (OligoCF-5/20) 10%
# [26] = Klebsiella pneumoniae (5712, Wales, V12) MDR, G-block (OligoCF-5/20) 0%, read-out: MIC
# [27] = Klebsiella pneumoniae (5712, Wales, V12) MDR, G-block (OligoCF-5/20) 2%, read-out: MIC
# [28] = Klebsiella pneumoniae (5712, Wales, V12) MDR, G-block (OligoCF-5/20) 6%, read-out: MIC
# [29] = Klebsiella pneumoniae (5712, Wales, V12) MDR, G-block (OligoCF-5/20) 10%, read-out: MIC
# [30] = Klebsiella pneumoniae (IR25, India, V6) MDR, G-block (OligoCF-5/20) 2%, read-out: MIC
# [31] = Klebsiella pneumoniae (IR25, India, V6) MDR, G-block (OligoCF-5/20) 10%, read-out: MIC
# [32] = Klebsiella pneumoniae (K3, India, V8) MDR, G-block (OligoCF-5/20) 2%, read-out: MIC
structure (smiles),measurement,setting,value
CC[C@H]1OC(=O)[C@H](C)[C@@H](O[C@H]2C[C@@](C)(OC)[C@@H](O)[C@H](C)O2)[C@H](C)[C@@H](O[C@@H]2O[C@H](C)C[C@H](N(C)C)[C@H]2O)[C@](C)(O)C[C@@H](C)[C@@H]2N[C@@H](COCCOC)O[C@H]([C@H]2C)[C@]1(C)O [Dirithromycin],MIC,Streptococcus oralis; G-block (OligoCF-5/20) 0%,4 mg/L
same,MIC,Streptococcus oralis; G-block (OligoCF-5/20) 2%,4 mg/L
same,MIC,Streptococcus oralis; G-block (OligoCF-5/20) 6%,< 0.0312 mg/L
same,MIC,Streptococcus oralis; G-block (OligoCF-5/20) 10%,0.0312 mg/L
same,MIC,[1]; [12],1020 mg/L
same,MIC,[1]; [13],512 mg/L
same,MIC,[1]; [14],512 mg/L
same,MIC,[1]; [15],256 mg/L
same,MIC,[2]; [16],512 mg/L
same,MIC,[2]; [17],256 mg/L
same,MIC,[2]; [18],256 mg/L
same,MIC,[2]; [19],256 mg/L
same,MIC,"[3]; Table 8, G-block (OligoCF-5/20) 0%",> 512 mg/L
same,MIC,"[3]; Table 8, G-block (OligoCF-5/20) 2%",> 512 mg/L
same,MIC,[3]; [20],512 mg/L
same,MIC,[3]; [21],256 mg/L
same,MIC,[4]; G-block (OligoCF-5/20) 0%,> 512 mg/L
same,MIC,[4]; G-block (OligoCF-5/20) 2%,> 512 mg/L
same,MIC,[4]; G-block (OligoCF-5/20) 6%,512 mg/L
same,MIC,[4]; G-block (OligoCF-5/20) 10%,512 mg/L
same,MIC,[5]; [12],128 mg/L
same,MIC,[5]; [13],64 mg/L
same,MIC,[5]; [14],32 mg/L
same,MIC,[5]; [15],64 mg/L
same,MIC,MDR Providencia stuartii; G-block (OligoCF-5/20) 0%,8 mg/L
same,MIC,MDR Providencia stuartii; G-block (OligoCF-5/20) 2%,4 mg/L
same,MIC,MDR Providencia stuartii; G-block (OligoCF-5/20) 6%,4 mg/L
same,MIC,MDR Providencia stuartii; G-block (OligoCF-5/20) 10%,2 mg/L
same,MIC,[6]; [22],64 mg/L
same,MIC,[6]; [23],8 mg/L
same,MIC,[6]; [24],2 mg/L
same,MIC,[6]; [25],< 1 mg/L
same,MIC,[7]; [22],< 1 mg/L
same,MIC,[7]; [23],< 1 mg/L
same,MIC,[7]; [24],< 1 mg/L
same,MIC,[7]; [25],< 1 mg/L
same,MIC,[8]; [26],128 mg/L
same,MIC,[8]; [27],64 mg/L
same,MIC,[8]; [28],64 mg/L
same,MIC,[8]; [29],32 mg/L
same,MIC,"[8]; Klebsiella pneumoniae (IR25, India, V6) MDR, G-block (OligoCF-5/20) 0%, read-out: MIC",1020 mg/L
same,MIC,[8]; [30],1020 mg/L
same,MIC,"[8]; Klebsiella pneumoniae (IR25, India, V6) MDR, G-block (OligoCF-5/20) 6%, read-out: MIC",512 mg/L
same,MIC,[8]; [31],256 mg/L
same,MIC,"[8]; Klebsiella pneumoniae (K3, India, V8) MDR, G-block (OligoCF-5/20) 0%, read-out: MIC",256 mg/L
same,MIC,[8]; [32],128 mg/L
same,MIC,"[8]; Klebsiella pneumoniae (K3, India, V8) MDR, G-block (OligoCF-5/20) 6%, read-out: MIC",128 mg/L
same,MIC,"[8]; Klebsiella pneumoniae (K3, India, V8) MDR, G-block (OligoCF-5/20) 10%, read-out: MIC",128 mg/L
C[C@H]1[C@H](NC(=O)/C(=N\OC(C)(C)C(=O)O)c2csc(N)n2)C(=O)N1S(=O)(=O)O [Aztreonam],MIC,[1]; [12],1020 mg/L
same,MIC,[1]; [13],1020 mg/L
same,MIC,[1]; G-block (OligoCF-5/20) 6%,512 mg/L
same,MIC,[1]; G-block (OligoCF-5/20) 10%,512 mg/L
same,MIC,"V22 6056 Acinetobacter; Acinetobacter, OligoCF-5/20 0G, read-out: MIC",256 mg/L
same,MIC,V22 6056 Acinetobacter; OligoCF-5/20 +2% G,128^† μg/ml
same,MIC,V22 6056 Acinetobacter; OligoCF-5/20 +6% G,64^† μg/ml
same,MIC,V22 6056 Acinetobacter; OligoCF-5/20 +10% G,32^† μg/ml
same,MIC,"[9]; Table 1, V4 ACB (Libya), OligoCF-5/20 0G",1020 mg/L
same,MIC,"[9]; Table 1, V4 ACB (Libya), OligoCF-5/20 +2% G",512 mg/L
same,MIC,"[9]; Table 1, V4 ACB (Libya), OligoCF-5/20 +6% G",256 mg/L
same,MIC,"[9]; Table 1, V4 ACB (Libya), OligoCF-5/20 +10% G",128 mg/L
same,MIC,"[9]; Table 7, V4 MDR Acin baum (Libya), M-block oligomer 0M",2050 mg/L
same,MIC,"[9]; Table 7, V4 MDR Acin baum (Libya), M-block oligomer +2% M",512 mg/L
same,MIC,"[9]; Table 7, V4 MDR Acin baum (Libya), M-block oligomer +6% M",256 mg/L
same,MIC,"[9]; Table 7, V4 MDR Acin baum (Libya), M-block oligomer +10% M",64 mg/L
same,effect in combination with alginate oligomers,"[9]; Example 1, Acinetobacter baumannii isolate",more positive effect
same,MIC,[2]; [16],> 16 mg/L
same,MIC,[2]; [17],> 16 mg/L
same,MIC,[2]; [18],> 16 mg/L
same,MIC,[2]; [19],> 16 mg/L
same,MIC,[3]; [20],0.0625 mg/L
same,MIC,[3]; [21],0.0312 mg/L
same,MIC,[4]; G-block (OligoCF-5/20) 10%,0.0625 mg/L
same,MIC,[10]; OligoCF-5/20 0G,32 mg/L
same,MIC,[10]; OligoCF-5/20 +2% G,16 mg/L
same,MIC,[10]; OligoCF-5/20 +6% G,< 4 mg/L
same,MIC,[10]; OligoCF-5/20 +10% G,< 4 mg/L
same,MIC,"V11 5702 (Wales) E. coli; Escherichia coli, OligoCF-5/20 0G, read-out: MIC",256 mg/L
same,MIC,V11 5702 (Wales) E. coli; OligoCF-5/20 +2% G,256 mg/L
same,MIC,V11 5702 (Wales) E. coli; OligoCF-5/20 +6% G,256 mg/L
same,MIC,V11 5702 (Wales) E. coli; OligoCF-5/20 +10% G,256 mg/L
same,MIC,"[11]; Klebsiella pneumoniae, OligoCF-5/20 0G, read-out: MIC",256 mg/L
same,MIC,[11]; OligoCF-5/20 +2% G,512^‡ μg/ml
same,MIC,[11]; OligoCF-5/20 +6% G,128^† μg/ml
same,MIC,[11]; OligoCF-5/20 +10% G,64^† μg/ml
same,MIC,[5]; [12],256 mg/L
same,MIC,[5]; [13],256 mg/L
same,MIC,[5]; G-block (OligoCF-5/20) 6%,128 mg/L
same,MIC,[5]; [15],64 mg/L
same,MIC,MDR Providencia stuartii; G-block (OligoCF-5/20) 0%,> 1020 mg/L
same,MIC,MDR Providencia stuartii; G-block (OligoCF-5/20) 2%,> 1020 mg/L
same,MIC,MDR Providencia stuartii; G-block (OligoCF-5/20) 6%,> 1020 mg/L
same,MIC,MDR Providencia stuartii; G-block (OligoCF-5/20) 10%,> 1020 mg/L
same,MIC,[6]; [22],4 mg/L
same,MIC,[6]; [23],4 mg/L
same,MIC,[6]; [24],1 mg/L
same,MIC,[6]; [25],0.5 mg/L
same,MIC,[7]; [22],8 mg/L
same,MIC,[7]; [23],4 mg/L
same,MIC,[7]; [24],2 mg/L
same,MIC,[7]; [25],1 mg/L
same,MIC,[8]; [26],4 mg/L
same,MIC,[8]; [27],4 mg/L
same,MIC,[8]; [28],4 mg/L
same,MIC,[8]; [29],4 mg/L
same,MIC,[8]; [30],256 mg/L
same,MIC,"[8]; Klebsiella pneumoniae (IR25, India, V6) MDR, G-block (OligoCF-5/20) 6%",128 mg/L
same,MIC,[8]; [31],64 mg/L
same,MIC,[8]; [32],256 mg/L
same,MIC,"[8]; Klebsiella pneumoniae (K3, India, V8) MDR, G-block (OligoCF-5/20) 6%",128 mg/L
same,MIC,"[8]; Klebsiella pneumoniae (K3, India, V8) MDR, G-block (OligoCF-5/20) 10%",128 mg/L
